Key:
[1] = Stability in aqueous medium (dimethyl sulfoxide/Dulbecco's Modified Eagle Medium) by UV-Vis spectroscopy; format: physicochemical; settings: for Relative variation of the maximum absorbance of the π→π* transitions: band 292-296 nm (λmax in column head); for Relative variation of the maximum absorbance of the charge transfer bands: band 358-400 nm (λmax in column head)
Description: (§1) The stability of the complexes 4-11 in organic and aqueous media was evaluated over 24 h by UV-Vis spectroscopy at room temperature, in dark, on a Jasco V-660 spectrometer using quartz cuvettes (1 cm optical path length). The electronic spectra (270-900 nm) were acquired at regular periods of time (0 h, 0.25 h, 0.5 h, 0.75 h, 1 h, 2 h, 3 h, 4 h, 5 h, 6 h, 24 h) for solutions of 100% dimethyl sulfoxide (complexes 4-11) and 5% dimethyl sulfoxide/95% Dulbecco's Modified Eagle Medium (complexes 4, 5 and 8-11) or 10% dimethyl sulfoxide/90% Dulbecco's Modified Eagle Medium (complexes 6 and 7) at concentrations ranging from 7.0×10^-5 M to 3.0×10^-4 M.

[2] = Stability in organic medium (dimethyl sulfoxide) by UV-Vis spectroscopy; format: physicochemical; settings: band 357-425 nm (λmax in column head)
Description: as §1

[3] = 10% dimethyl sulfoxide/90% Dulbecco's Modified Eagle Medium, time 0 h
[4] = 10% dimethyl sulfoxide/90% Dulbecco's Modified Eagle Medium, time 0.25 h
[5] = 10% dimethyl sulfoxide/90% Dulbecco's Modified Eagle Medium, time 0.5 h
[6] = 10% dimethyl sulfoxide/90% Dulbecco's Modified Eagle Medium, time 0.75 h
[7] = 10% dimethyl sulfoxide/90% Dulbecco's Modified Eagle Medium, time 1 h
[8] = 10% dimethyl sulfoxide/90% Dulbecco's Modified Eagle Medium, time 2 h
[9] = 10% dimethyl sulfoxide/90% Dulbecco's Modified Eagle Medium, time 3 h
[10] = 10% dimethyl sulfoxide/90% Dulbecco's Modified Eagle Medium, time 4 h
[11] = 10% dimethyl sulfoxide/90% Dulbecco's Modified Eagle Medium, time 5 h
[12] = 10% dimethyl sulfoxide/90% Dulbecco's Modified Eagle Medium, time 6 h
[13] = 10% dimethyl sulfoxide/90% Dulbecco's Modified Eagle Medium, time 24 h
[14] = 5% dimethyl sulfoxide/95% Dulbecco's Modified Eagle Medium, time 0 h
[15] = 5% dimethyl sulfoxide/95% Dulbecco's Modified Eagle Medium, time 0.25 h
[16] = 5% dimethyl sulfoxide/95% Dulbecco's Modified Eagle Medium, time 0.5 h
[17] = 5% dimethyl sulfoxide/95% Dulbecco's Modified Eagle Medium, time 0.75 h
[18] = 5% dimethyl sulfoxide/95% Dulbecco's Modified Eagle Medium, time 1 h
[19] = 5% dimethyl sulfoxide/95% Dulbecco's Modified Eagle Medium, time 2 h
[20] = 5% dimethyl sulfoxide/95% Dulbecco's Modified Eagle Medium, time 3 h
[21] = 5% dimethyl sulfoxide/95% Dulbecco's Modified Eagle Medium, time 4 h
[22] = 5% dimethyl sulfoxide/95% Dulbecco's Modified Eagle Medium, time 5 h
[23] = 5% dimethyl sulfoxide/95% Dulbecco's Modified Eagle Medium, time 6 h
[24] = 5% dimethyl sulfoxide/95% Dulbecco's Modified Eagle Medium, time 24 h

## CC(=O)C1=C[CH]([Ru-]2([PH](c3ccccc3)(c3ccccc3)c3ccccc3)[n+]3cccc4c5nccnc5c5ccc[n+]2c5c43)C=C1.O=S(=O)([O-])C(F)(F)F (stereo not drawn) [compound 7]
[1]; [3]
  Relative variation of the maximum absorbance of the π→π* transitions: 0.0%
  Relative variation of the maximum absorbance of the charge transfer bands: 0.0%
[1]; [4]
  Relative variation of the maximum absorbance of the π→π* transitions: 0.0%
  Relative variation of the maximum absorbance of the charge transfer bands: 0.3%
[1]; [5]
  Relative variation of the maximum absorbance of the π→π* transitions: 0.1%
  Relative variation of the maximum absorbance of the charge transfer bands: 0.4%
[1]; [6]
  Relative variation of the maximum absorbance of the π→π* transitions: 0.3%
  Relative variation of the maximum absorbance of the charge transfer bands: 0.6%
[1]; [7]
  Relative variation of the maximum absorbance of the π→π* transitions: 0.1%
  Relative variation of the maximum absorbance of the charge transfer bands: 0.5%
[1]; [8]
  Relative variation of the maximum absorbance of the π→π* transitions: 0.1%
  Relative variation of the maximum absorbance of the charge transfer bands: 0.5%
[1]; [9]
  Relative variation of the maximum absorbance of the π→π* transitions: 0.0%
  Relative variation of the maximum absorbance of the charge transfer bands: 0.4%
[1]; [10]
  Relative variation of the maximum absorbance of the π→π* transitions: −0.3%
  Relative variation of the maximum absorbance of the charge transfer bands: 0.5%
[1]; [11]
  Relative variation of the maximum absorbance of the π→π* transitions: −0.2%
  Relative variation of the maximum absorbance of the charge transfer bands: 0.5%
[1]; [12]
  Relative variation of the maximum absorbance of the π→π* transitions: 0.0%
  Relative variation of the maximum absorbance of the charge transfer bands: 0.4%
[1]; [13]
  Relative variation of the maximum absorbance of the π→π* transitions: 0.3%
  Relative variation of the maximum absorbance of the charge transfer bands: 1.3%
[2]; time 0 h
  Relative variation of the maximum absorbance of the charge transfer bands: 0.0%
[2]; time 0.25 h
  Relative variation of the maximum absorbance of the charge transfer bands: 0.0%
[2]; time 0.5 h
  Relative variation of the maximum absorbance of the charge transfer bands: −0.1%
[2]; time 0.75 h
  Relative variation of the maximum absorbance of the charge transfer bands: −0.1%
[2]; time 1 h
  Relative variation of the maximum absorbance of the charge transfer bands: −0.1%
[2]; time 2 h
  Relative variation of the maximum absorbance of the charge transfer bands: −0.3%
[2]; time 3 h
  Relative variation of the maximum absorbance of the charge transfer bands: −0.2%
[2]; time 4 h
  Relative variation of the maximum absorbance of the charge transfer bands: −0.5%
[2]; time 5 h
  Relative variation of the maximum absorbance of the charge transfer bands: −0.3%
[2]; time 6 h
  Relative variation of the maximum absorbance of the charge transfer bands: −0.4%
[2]; time 24 h
  Relative variation of the maximum absorbance of the charge transfer bands: −0.3%

## CCOC(=O)Oc1cc[n+]2c(c1)-c1cc(OC)cc[n+]1[Ru-]2([CH]1C=CC=C1)[PH](c1ccccc1)(c1ccccc1)c1ccccc1.O=S(=O)([O-])C(F)(F)F (stereo not drawn) [compound 11]
[1]; [14]
  Relative variation of the maximum absorbance of the π→π* transitions: 0.0%
  Relative variation of the maximum absorbance of the charge transfer bands: 0.0%
[1]; [15]
  Relative variation of the maximum absorbance of the π→π* transitions: −0.2%
  Relative variation of the maximum absorbance of the charge transfer bands: −0.1%
[1]; [16]
  Relative variation of the maximum absorbance of the π→π* transitions: −0.3%
  Relative variation of the maximum absorbance of the charge transfer bands: 0.0%
[1]; [17]
  Relative variation of the maximum absorbance of the π→π* transitions: −0.2%
  Relative variation of the maximum absorbance of the charge transfer bands: 0.1%
[1]; [18]
  Relative variation of the maximum absorbance of the π→π* transitions: −0.2%
  Relative variation of the maximum absorbance of the charge transfer bands: 0.1%
[1]; [19]
  Relative variation of the maximum absorbance of the π→π* transitions: −0.5%
  Relative variation of the maximum absorbance of the charge transfer bands: 0.1%
[1]; [20]
  Relative variation of the maximum absorbance of the π→π* transitions: −0.4%
  Relative variation of the maximum absorbance of the charge transfer bands: 0.1%
[1]; [21]
  Relative variation of the maximum absorbance of the π→π* transitions: −0.9%
  Relative variation of the maximum absorbance of the charge transfer bands: 0.0%
[1]; [22]
  Relative variation of the maximum absorbance of the π→π* transitions: −0.7%
  Relative variation of the maximum absorbance of the charge transfer bands: 0.1%
[1]; [23]
  Relative variation of the maximum absorbance of the π→π* transitions: −0.4%
  Relative variation of the maximum absorbance of the charge transfer bands: 0.2%
[1]; [24]
  Relative variation of the maximum absorbance of the π→π* transitions: −1.0%
  Relative variation of the maximum absorbance of the charge transfer bands: 0.4%
[2]; time 0 h
  Relative variation of the maximum absorbance of the charge transfer bands: 0.0%
[2]; time 0.25 h
  Relative variation of the maximum absorbance of the charge transfer bands: 0.0%
[2]; time 0.5 h
  Relative variation of the maximum absorbance of the charge transfer bands: 0.2%
[2]; time 0.75 h
  Relative variation of the maximum absorbance of the charge transfer bands: 0.1%
[2]; time 1 h
  Relative variation of the maximum absorbance of the charge transfer bands: 0.3%
[2]; time 2 h
  Relative variation of the maximum absorbance of the charge transfer bands: 0.1%
[2]; time 3 h
  Relative variation of the maximum absorbance of the charge transfer bands: 0.0%
[2]; time 4 h
  Relative variation of the maximum absorbance of the charge transfer bands: −0.2%
[2]; time 5 h
  Relative variation of the maximum absorbance of the charge transfer bands: −0.3%
[2]; time 6 h
  Relative variation of the maximum absorbance of the charge transfer bands: −0.3%
[2]; time 24 h
  Relative variation of the maximum absorbance of the charge transfer bands: 0.2%

From patent publication US20250195463A1, “ORGANOMETALLIC COMPLEX, CONTROLLED-RELEASE MULTI-FUNCTIONAL DRUG, PHARMACEUTICAL COMPOSITION, PROCESSES FOR THE PREPARATION THEREOF AND THEIR USE” (FACULDADE DE CIÊNCIAS DA UNIVERSIDADE DE LISBOA, priority 2022, published 2025)
